Results on eight molecules are retold here after US20250011788A1, “NUCLEIC ACID INTERFERENCE PHARMACEUTICAL COMPOSITION, AND DRUG FOR TREATING COLORECTAL CANCER, GASTRIC CANCER, AND PROSTATE CANCER” (SIRNAOMICS BIOPHARMACEUTICALS (SUZHOU) CO., LTD., priority 2022, published 2025).

d = 2'-deoxy (DNA); r = 2'-OH (RNA)

The subject of one data set is RM-1 cells tumor graft. Nature of the data set: Mouse subcutaneous tumor graft model of prostate cancer RM-1 cells. The format is in vivo, C57BL/6J mice. On the procedure:
Next, another tumor graft model was established to further validate the pharmacodynamic evaluation of candidate drug on the growth of mouse tumor graft of mouse prostate cancer RM-1 cells. The nano drug formulation was prepared by the method described above. RM-1 subcutaneous tumor-bearing mice were modeled as follows: C57BL/6J mice were each inoculated subcutaneously with 5×10^6 cells. The mice were grouped on the basis of random numbers when the mean tumor volume reached about 100-120 mm^3. The dosing regimen was as follows: for STP500, 3 mg/kg, intravenously administered (i.v.) via the tail vein, every 2 days (Q2D); for The positive control (docetaxel), 15 mg/kg, intraperitoneally administered (i.p.), every week (QW). After the first dose, the weight and tumor volume of the mice were recorded every 2 days, and the tumor volume was calculated by V=0.5×(Dmax×Dmin^2), where Dmax refers to the longest diameter of the tumor, and Dmin refers to the shortest diameter of the tumor. A tumor volume curve was drawn at the end of the experiment. The mice were euthanized, and tumors were removed and weighed. TGItw (percentage change in Tumor weight) was calculated by:
(§1) [formula] • Mean TWtreat: the mean tumor weight of the mice in the treatment group at the end of treatment; • Mean TWvehicle: the Mean tumor weight of mice in the Vehicle group at the end of treatment.

For data set [1], the system named is MKN45 cells tumor xenograft. The data set can be described thus: Mouse subcutaneous tumor xenograft model of gastric cancer MKN45 cells. The format is in vivo, BALB/c-Nude mice. As to the method:
Next, another tumor graft model was established to further validate the pharmacodynamic evaluation of candidate drug on the growth of mouse tumor xenograft of human gastric cancer MKN45 cells. The nano drug formulation was prepared by the method described above. MKN45 subcutaneous tumor-bearing mice were modeled as follows: BALB/c-Nude mice were each inoculated subcutaneously with 5×10^6 MKN45 cells. Randomization was performed when the mean tumor volume reached about 100-120 mm^3. […] After the first dose, the weight and tumor volume of the mice were recorded every 2 days, and the tumor volume was calculated by V=0.5×(Dmax×Dmin^2), where Dmax refers to the longest diameter of the tumor, and Dmin refers to the shortest diameter of the tumor. A tumor volume curve was drawn at the end of the experiment. The mice were euthanized, and tumors were removed and weighed. TGItw (percentage change in tumor weight) was calculated by:
as §1

A further data set deals with MC38 cells tumor graft. The data set can be described thus: Mouse subcutaneous tumor graft model of colorectal cancer MC38 cells. The format is in vivo, C57BL/6 mice. The settings on record: STP500 2 mg/kg i.v. Q2D, siMD8 1 mg/kg i.v. Q2D, Sorafenib 30 mg/kg p.o. QD. The text has this:
Based on the data from previous in-vitro experiments, two siRNAs (MD8-21-hm5# and TF1-25-hm5# in this example) were mixed at a mass ratio of 1/1, and encapsulated the mixture into the HKP(+H) (histidine-lysine polymer) carrier through patented PNP technology to prepare the nanoparticle formulation (the nano drug formulation STP500 prepared in Example 8). The tumor growth inhibitory activity of the candidate siRNA sequence was validated by a mouse tumor xenograft model (colorectal cancer cells MC38).
C57BL/6 mice were each inoculated subcutaneously with 1×10^6 MC38 cells per mouse, and randomized groups when the mean tumor volume reached about 100 mm^3. The dosing regimen was as follows: for STP500, 2 mg/kg, intravenously administered (i.v.) via the tail vein, every 2 days (Q2D); for Small nucleic acid monotherapy MD8 (MyD88 siRNA, also known as siMyD88), 1 mg/kg, intravenously administered (i.v.) via the tail vein, every 2 days (Q2D); and for the positive control group (Sorafenib), 30 mg/kg, intragastrically administered p.o., every day (QD). After the first dose, the weight and tumor volume of the mice were recorded every 2 days, and the tumor volume was calculated by V=0.5×(Dmax×Dmin^2), where Dmax refers to the longest diameter of the tumor, and Dmin refers to the shortest diameter of the tumor. […] TGItw (percentage change in tumor weight) was calculated by: […]

Data set [2] has as its system MyD88 gene (mRNA). The data set can be described thus: In vitro screening of MyD88 siRNA: MyD88 mRNA silencing by RT-PCR. The format is cell-based, human. The settings on record: 100 nM siRNA; for target gene silencing effect in colorectal cells: lipo2000, 20-24 h. As to the method:
Some cell lines screened out in Example 2 were used for primary siRNA screening, including a breast cancer cell line (MDA-MB-231), a neuroglioma cell line (U87-MG), a human brain glioma cell line (T98G), a human colorectal cancer epithelial cell line (DLD-1) and a human colon cancer cell line (RKO). Specifically, the MyD88 siRNA sequence in Table 1 was transfected into the above five cells by lipo2000, and the transfection concentration was 100 nM (calculated by siRNA). After transfection for 20-24 h, the total RNA of the cells was extracted, and the mRNA expression level of the target gene MyD88 was detected by RT-PCR technology. […] The three specifical sequences are MD8-21-hm3# (NTS00025-21-hm3# in FIG. 3), MD8-21-hm4# (NTS00025-21-hm4# in FIG. 3) and MD8-21-hm5# (NTS00025-21-hm5# in FIG. 3).

In data set [3] the test system is MyD88 gene (mRNA). Nature of the data set: EC50 of MyD88 mRNA knockdown in human-derived cell lines. Type of data set: cell-based. As to the method: Then, for these candidate siRNA sequences, multiple concentration gradients were set in human-derived cell lines and mouse-derived cell lines respectively for cell transfection, and their EC50 values (half-maximal effective concentration) were obtained. […] In the mouse-derived cell lines, EC50<10 nM only occurs for MD8-21-hm5# in mouse prostate cancer (RM-1) cells and colorectal cancer (MC38) cells as well as MD8-21-hm4# in colorectal cancer (MC38) cells. Therefore, based on the above data, the human-mouse homologous sequence MD8-21-hm5# is preferably used for pharmacodynamic evaluation of animal models in vivo.

Another data set has as its system MyD88 protein. Nature of the data set: Western Blot knockdown of target gene protein in cell lines (MyD88). Type of data set: cell-based, human and mouse cell lines. As to conditions: MDA-MB-231, RKO and RM-1 cells; 100 nM and 10 nM, 48 h.
In the next data set the test system is DLD-1 cells. Nature of the data set: In vitro cell migration (wound healing/scratch) test. Type of data set: cell-based, human. As to conditions: 96 h, 100 and 10 nM, dose-dependent. As to the method: On the day before the initiation of the experiment, a 12-well plate was prepared, a 2-well culture-insert for wound healing (ibidi, 80209) was placed in the center of the culture dish, and cells were inoculated into the 2-well culture-insert at 1×10^4 cells per well and cultured overnight. On the second day, siMyD88 was transfected into the cells at […] and 10 nM, and the transfection experiment was completed. After transfection for 24 h, the 2-well culture-insert for wound healing was gently removed with tweezers (to avoid cell shedding), and the 12-well plate was added with a medium containing 1% serum to continue cell culture. At the same time, a photograph was taken under the microscope as the 0 h cell migration data. The culture was continued for 24 h and 96 h, and the cell migration was recorded under the microscope. The cell migration was determined by comparing the wound distance at the initial scratch (0 h) versus at the later observation points (24 h and 96 h).

For the next data set, the system named is TGF-β1 protein. The data set can be described thus: Western Blot knockdown of target gene protein in cell lines (TGF-β1). The format is cell-based, human. The settings on record: RKO cell line; 100 nM and 10 nM, 48 h. As to the method: The target gene knockdown effects of siRNA sequences on the targets TGF-β1 and MyD88 at the cellular level were evaluated by Western Blot. The procedures were as follows: on The day before the initiation of the experiment, the cells were inoculated in a 6-well plate at 1×10^6 cells per well, and cultured overnight. On the second day, siMyD88 and siTF1 were transfected into the cells at 100 nM and 10 nM respectively. After transfection for 48 h, the cells were collected and transferred to centrifuge tubes. RIPA lysate was added to each tube to extract total cell protein, and then the total cell protein concentration was quantified by a BCA protein quantification method. Western Blot analysis was performed on all protein samples using the following antibodies: MyD88 primary antibody (ab219413, 1:1000), TGF-β1 primary antibody (ab215715, 1:1000), Goat Anti-Rabbit IgG H&L (HRP) (ab205718, 1:10000). After the experiment, the ChemiDoc™ MP Imaging System (BIO-RAD) was used to capture the results.
Western Blot analysis of protein expression in candidate MyD88 siRNA (MD8-21-hm5#) plus TGF-β1 siRNA (TF1-21-h1#) in three cell lines in in-vitro human breast cancer cell line (MDA-MB-231) (FIG. 5A), human colon cancer cell line (RKO) (FIG. 5B) and mouse prostate cancer (RM-1) cells (FIG. 5C).
(A western blot detects proteins with antibodies after separation by electrophoresis.)

`CC(=O)O[C@@]12CO[C@@H]1C[C@H](O)[C@@]1(C)C(=O)[C@H](O)C3=C(C)[C@@H](OC(=O)[C@H](O)[C@@H](NC(=O)OC(C)(C)C)c4ccccc4)C[C@@](O)([C@@H](OC(=O)c4ccccc4)[C@H]21)C3(C)C` [Docetaxel]: the “effect on the weight of mice” value in the data set on RM-1 cells tumor graft (STP500 3 mg/kg Q2D, Docetaxel 15 mg/kg i.p. QW) is on record as “no significant difference”. Also, the “growth of prostate cancer tumor graft” value in the data set with RM-1 cells tumor graft (after 8 doses, compared with control group) is on record as “did not show a tumor-killing effect”. The “Tumor weight, Mean” value in the data set on RM-1 cells tumor graft (end of treatment, STP500 3 mg/kg i.v. Q2D, Docetaxel 15 mg/kg i.p. QW) is given as 4.72 g. The “TGItw (tumor growth inhibition by tumor weight)” value in the data set with RM-1 cells tumor graft (versus Vehicle, STP500 3 mg/kg i.v. Q2D, Docetaxel 15 mg/kg i.p. QW) is on record as −4%.

Turning to `O=C1[O][Pt]2([NH][C@@H]3CCCC[C@H]3[NH]2)[O]C1=O` [Oxaliplatin], in data set [1] (after 7 doses, compared with control group), the “growth of gastric cancer tumor graft” value was “better tumor inhibition effect”. Moreover, the “Tumor weight, Mean” value in data set [1] (end of treatment, STP500 3 mg/kg i.v. Q2D, Oxaliplatin 7.5 mg/kg i.p. QD) is on record as 0.16 g. The “TGItw (tumor growth inhibition by tumor weight)” value in data set [1] (versus Vehicle, STP500 3 mg/kg i.v. Q2D, Oxaliplatin 7.5 mg/kg i.p. QD) stood at 58%.

`CNC(=O)c1cc(Oc2ccc(NC(=O)Nc3ccc(Cl)c(C(F)(F)F)c3)cc2)ccn1` [Sorafenib]: the “Tumor weight, Mean” value with MC38 cells tumor graft (end of treatment) is given as 0.3571 g. In the data set on MC38 cells tumor graft (versus Vehicle), the “TGItw (tumor growth inhibition by tumor weight)” value amounted to 12.28%.

In the case of “MD8-21-h5#: MyD88 siRNA; sense GCAUACACACGUUUUUCUAdTdT (SEQ ID NO: 9), antisense UAGAAAAACGUGUGUAUGCdTdT (SEQ ID NO: 10) (sense GCAUACACACGUUUUUCUATT; antisense UAGAAAAACGUGUGUAUGCTT; sugars from the 5' end r19 d2, backbone not given here)”, the “ranking of silencing effect among human-derived sequences” value with MyD88 gene (mRNA) [2] (five human cell lines) was “best effect”. The “effect in EC50 comparison” value in the data set on MyD88 gene (mRNA) [3] was “relatively good”.

With “MD8-21-hm3#: MyD88 siRNA; sense CAGAGCAAGGAAUGUGACUdTdT (SEQ ID NO: 27), antisense AGUCACAUUCCUUGCUCUGdTdT (SEQ ID NO: 28) (sense CAGAGCAAGGAAUGUGACUTT; antisense AGUCACAUUCCUUGCUCUGTT; sugars from the 5' end r19 d2, backbone not given here)”, the “target gene silencing effect in colorectal cells” value (“target gene silencing effect” below) in the data set on MyD88 gene (mRNA) [2] is “about 85%”.

Regarding “MD8-21-hm4#: MyD88 siRNA; sense GCAAGGAAUGUGACUUCCAdTdT (SEQ ID NO: 29), antisense UGGAAGUCACAUUCCUUGCdTdT (SEQ ID NO: 30) (sense GCAAGGAAUGUGACUUCCATT; antisense UGGAAGUCACAUUCCUUGCTT; sugars from the 5' end r19 d2, backbone not given here)”, in the data set with MyD88 gene (mRNA) [2], the “target gene silencing effect” value is “about 85%”.

For “MD8-21-hm5#: MyD88 siRNA; sense GAAUGUGACUUCCAGACCAdTdT (SEQ ID NO: 31), antisense UGGUCUGGAAGUCACAUUCdTdT (SEQ ID NO: 32) (sense GAAUGUGACUUCCAGACCATT; antisense UGGUCUGGAAGUCACAUUCTT; sugars from the 5' end r19 d2, backbone not given here)”, the “target gene silencing effect” value in the data set on MyD88 gene (mRNA) [2] is given as “about 85%”. Besides, the “effect in EC50 comparison” value in the data set on MyD88 gene (mRNA) [3] is given as “relatively good”. In addition, the “knockdown effect on MyD88 protein” value in the data set on MyD88 protein is reported as “obvious knockdown effect”. The “inhibitory effect on in vitro migration ability” value in the data set with DLD-1 cells was “significant inhibitory effect”.

As to “TF1-21-h1#: TGF-β1 siRNA; sense GCAGAGUACACACAGCAUAdTdT (SEQ ID NO: 37), antisense UAUGCUGUGUGUACUCUGCdTdT (SEQ ID NO: 38) (sense GCAGAGUACACACAGCAUATT; antisense UAUGCUGUGUGUACUCUGCTT; sugars from the 5' end r19 d2, backbone not given here)”, in the data set with TGF-β1 protein, the “knockdown effect on TGF-β1 protein” value is reported as “obvious knockdown effect”.
